From PubChem BioAssay (NCI)
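Growth conditions: 96-well plates. Treatment: test compound, 48 hours, 5 concentrations. Analysis: linear interpolation between bracketing concentrations; unreached endpoints set to highest concentration. TGI denotes the concentration required for complete inhibition of growth.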 Where a SMILES comes first, the peptide text is derived from it. The star is where a group is joined. Cbz = O=C(OCc1ccccc1)*

How the values were obtained:
Assay in all cases: NCI-60 cell line screen, 48 h
SF-295 CNS = test system: SF-295 CNS
786-0 renal = test system: 786-0 renal
U251 CNS = test system: U251 CNS
OVCAR-8 ovarian = test system: OVCAR-8 ovarian
SNB-75 CNS = test system: SNB-75 CNS
UACC-62 melanoma = test system: UACC-62 melanoma
HOP-92 NSCLC = test system: HOP-92 NSCLC
COLO 205 colon = test system: COLO 205 colon
MOLT-4 leukemia = test system: MOLT-4 leukemia
SF-539 CNS = test system: SF-539 CNS
ACHN renal = test system: ACHN renal
HT29 colon = test system: HT29 colon
HOP-62 NSCLC = test system: HOP-62 NSCLC
NCI-H460 lung = test system: NCI-H460 lung
OVCAR-5 ovarian = test system: OVCAR-5 ovarian
NCI-H522 lung = test system: NCI-H522 lung
A498 renal = test system: A498 renal
M14 melanoma = test system: M14 melanoma
OVCAR-4 ovarian = test system: OVCAR-4 ovarian
SK-MEL-5 melanoma = test system: SK-MEL-5 melanoma

Compound | TGI (SF-295 CNS) [µM] | TGI (786-0 renal) [µM] | TGI (U251 CNS) [µM] | TGI (OVCAR-8 ovarian) [µM] | TGI (SNB-75 CNS) [µM] | TGI (UACC-62 melanoma) [µM] | TGI (HOP-92 NSCLC) [µM] | TGI (COLO 205 colon) [µM] | TGI (MOLT-4 leukemia) [µM] | TGI (SF-539 CNS) [µM] | TGI (ACHN renal) [µM] | TGI (HT29 colon) [µM] | TGI (HOP-62 NSCLC) [µM] | TGI (NCI-H460 lung) [µM] | TGI (OVCAR-5 ovarian) [µM] | TGI (NCI-H522 lung) [µM] | TGI (A498 renal) [µM] | TGI (M14 melanoma) [µM] | TGI (OVCAR-4 ovarian) [µM] | TGI (SK-MEL-5 melanoma) [µM]
Cc1cc2c(=O)c(C)n[nH]c2c(C#N)c1C | > 100 | > 100 | > 100 | > 100 | > 100 | > 100 | > 100 | > 100 | > 100 | > 100 | > 100 | > 100 | > 100 | > 100 | > 100 |  |  |  |  | 
CC(=O)Nn1cnc(C(=N)C#N)c1N | > 100 | > 100 | > 100 | > 100 | > 100 | > 100 |  | > 100 | > 100 | > 100 | > 100 | > 100 | > 100 | > 100 | > 100 | > 100 | > 100 | > 100 | > 100 | > 100
Cc1cccc(N=Cc2ccc(N(CCC#N)S(=O)(=O)c3ccccc3)cc2C)c1 | > 100 | > 100 | > 100 | > 100 | > 100 | > 100 | > 100 | > 100 | > 100 | > 100 | > 100 | > 100 | > 100 |  | > 100 | > 100 | > 100 | > 100 | > 100 | > 100
COC(=O)C(CC(C)C)NC(=O)C(CCCN=C(N)N)NC(=O)OCc1ccccc1 (stereo not drawn) (Cbz-Arg-Leu-OMe; configuration not given here) | > 100 | > 100 | > 100 | > 100 | > 100 | > 100 | > 100 | > 100 | > 100 |  | > 100 | > 100 | > 100 | > 100 | > 100 | > 100 |  | > 100 | > 100 | > 100
O=c1c(C(c2ccc([N+](=O)[O-])cc2)c2c(O)c3ccccc3n(-c3ccccc3)c2=O)c(O)c2ccccc2n1-c1ccccc1 | 33.3 | 26.9 | 75.2 | 73.9 |  | 14.8 | 29.3 | 63.4 | 41.9 | 28 | 72 |  | 37.4 |  | > 100 | 86.6 |  |  | > 100 | 38
Cc1ccc2nc(CN(CCO)CCO)cc(=O)n2c1 | > 100 | > 100 | > 100 | > 100 | > 100 | > 100 | > 100 | > 100 | > 100 | > 100 | > 100 | > 100 | > 100 | > 100 | > 100 | > 100 |  | > 100 | > 100 | 
COC(=O)CCC(=O)c1ccc2c(c1)CC1(C2)Cc2ccc(C(=O)CCC(=O)OC)cc2C1 | > 100 | > 100 | > 100 | > 100 | 0.172 | > 100 | > 100 | > 100 | > 100 | > 100 | > 100 | > 100 | > 100 |  | > 100 | > 100 | > 100 | > 100 | > 100 | 61.5
CSc1nc(-c2ccccc2)nc(C(C#N)C#N)n1 | > 100 | > 100 | > 100 | > 100 | > 100 | > 100 | > 100 | > 100 | > 100 | > 100 | > 100 | > 100 | > 100 |  | > 100 | > 100 | > 100 | > 100 | > 100 | > 100
O=C1c2cn[nH]c2N=C(Nc2ccccc2)C1N=Cc1ccc([N+](=O)[O-])cc1 (centres undefined) | > 10 | > 10 | > 10 | > 10 | > 10 |  |  |  | > 10 | > 10 | > 10 | > 10 |  | > 10 | > 10 | > 10 |  | > 10 | > 10 | > 10
COC(=O)N/N=C(\C)CC(=O)Nc1cccc([N+](=O)[O-])c1 | > 100 | > 100 | > 100 | > 100 | > 100 | > 100 | > 100 | > 100 | > 100 | > 100 |  | > 100 | > 100 | > 100 | > 100 | > 100 |  | > 100 |  | > 100
CNS(=O)(=O)NNS(=O)(=O)c1ccc(F)cc1 | > 100 | > 100 | > 100 | > 100 | > 100 | > 100 |  | > 100 | > 100 | > 100 | > 100 | > 100 | > 100 | > 100 |  | > 100 | > 100 | > 100 | > 100 | > 100
COc1ccccc1/C=N/Nc1nnc2c3ccccc3c3ncccc3c2n1 | 31.8 | 90.6 | > 100 | > 100 | 49.3 | > 100 | 52.8 | > 100 | > 100 | 76 | > 100 | > 100 | 49.2 | > 100 | > 100 | > 100 |  | > 100 | 60.1 | > 100
COc1ccc(-c2cc(=O)c3cc(Cl)ccc3[nH]2)cc1 | > 100 | > 100 |  | > 100 | > 100 | > 100 | > 100 | > 100 | > 100 | > 100 | > 100 | > 100 | > 100 | > 100 | > 100 | > 100 |  | > 100 | > 100 | > 100
